Broadly, the EC50 is the concentration at which the effect is half-maximal. Read a low EC50 as an effect from little substance.

This is an account of results in patent US7217815B2, “2-beta -modified-6-substituted adenosine analogs and their use as antiviral agents” (Valeant Pharmaceuticals North America, priority 2002, dated 2007).

Experiment [1] has as its system Bovine viral diarrhea virus (BVDV) (strain NADL). Nature of the experiment: Assay for inhibition of BVDV. The conditions noted are these: MDBK cells. In kind it is cell-based. How it is done: Bovine viral diarrhea virus (BVDV) (strain NADL) was provided by Dr. Ruben Donis and propagated in MDBK cells (ATCC). The nucleoside libraries and compounds were tested utilizing the modified protocol (V. B. Vassilev, M. S. Collett, R. O. Donis, J. Viol. 1997, 71, 471–478; S. G. Bagginski, D. C. Pevear, M. Seipel, S. C. C. Sun, C. A. Benetatos, S. K. Chunduru, C. M. Rice, M. S. Collett, Proc. Natl. Acad. Sci. U.S.A. 2000, 97, 7981–7986)

In experiment [2] the test system is HCV replicon RNA in replicon cells (Huh-7). Nature of the experiment: HCV replicon assay. In kind it is cell-based. Particulars: Huh-7 replicon cells, 3 days incubation, reduction of HCV RNA (Quantigene). How it is done:
The replicon cells (Huh-7) contain replicating HCV replicon RNA, which was modified in the structural region (replacing the structural region with a neomycin resistance marker). Survival of the replicon cells under G418 selection relies on the replication of HCV RNA and subsequently expression of neomycin phosphoryltransferase. The ability of modified nucleoside libraries and compounds to suppress HCV RNA replication was determined using the Quantigene Assay Kit from Bayer. The assay measures the reduction of HCV RNA molecules in the treated cells. Replicon cells were incubated at 37° C. for 3 days in the presence of nucleoside libraries and compounds before harvested for detection. HCV subgenomic replicon cell line was provided by Dr. Bartenschlager. The assay protocol was modified based on literature procedure (V. Lohmann, F. Korner, J. O. Koch, U. Herian, L. Theilmann, R. Bartenschlager, Science, 1999, 285, 110–113).
On the technique in general: Replicon systems follow genome replication, usually without infectious particles.

Turning to `CSc1cccc(Nc2ncnc3c2ncn3[C@@H]2O[C@H](CO)[C@@H](O)[C@@]2(C)O)c1` [Compound S1-4, N^6-[3-(Methylthio)phenyl]-9H-(2′-β-C-methyl-β-D-ribofuranosyl)adenine], the EC50 in experiment [1] and in experiment [2] was > 100 µM in each case.
On to `C[C@@]1(O)[C@H](O)[C@@H](CO)O[C@H]1n1cnc2c(NC[C@H]3CCCO3)ncnc21` [Compound S1-6, N^6-(R-Tetrahydrofurfuryl)-9H-(2′-β-C-methyl-β-D-ribofuranosyl)adenine], for which the EC50 in experiment [1] and in experiment [2] was > 100 µM throughout.
On to `CCOc1ccccc1CNc1ncnc2c1ncn2[C@@H]1O[C@H](CO)[C@@H](O)[C@@]1(C)O` [Compound S1-7, N^6-(2-Ethoxybenzyl)-9H-(2′-β-C-methyl-β-D-ribofuranosyl)adenine], for which the figures for the EC50 in experiment [1] and in experiment [2] were > 100 µM and 10 to 100 µM, respectively.
Taken in the same sequence, the figures for `CC1(C)OCC(CNc2ncnc3c2ncn3[C@@H]2O[C@H](CO)[C@@H](O)[C@@]2(C)O)O1` (stereo partly drawn) [Compound S1-8, N^6-(2,2-Dimethyl-1,3-dioxolane-4-methyl)-9H-(2′-β-C-methyl-β-D-ribofuranosyl)adenine] were > 100 µM and > 100 µM.
Taken in the same sequence, the figures for `C[C@@]1(O)[C@H](O)[C@@H](CO)O[C@H]1n1cnc2c(NCCO)ncnc21` [Compound S1-9, N^6-[2-(Hydroxy)ethyl]-9H-(2′-β-C-methyl-β-D-ribofuranosyl)adenine] were > 100 µM and 10 to 100 µM.
Taken in the same sequence, the figures for `C[C@@]1(O)[C@H](O)[C@@H](CO)O[C@H]1n1cnc2c(NN)ncnc21` [Compound S1-11, 6-(Hydrazinyl)-9H-(2′-β-C-methyl-β-D-ribofuranosyl)purine] were 25 to 100 µM and < 10 µM.
For `CN(C)Nc1ncnc2c1ncn2[C@@H]1O[C@H](CO)[C@@H](O)[C@@]1(C)O` [Compound S1-12, 6-(N,N-Dimethylhydrazino)-9H-(2′-β-C-methyl-β-D-ribofuranosyl)purine], the EC50 was < 25 µM in experiment [1] and < 10 µM in experiment [2].
Regarding `C[C@@]1(O)[C@H](O)[C@@H](CO)O[C@H]1n1cnc2c(N(N)CCO)ncnc21` [Compound S1-13, 6-[N^1-(Hydroxyethyl)hydrazino]-9H-(2′-β-C-methyl-β-D-ribofuranosyl)purine], the EC50 in experiment [1] was > 100 µM; in experiment [2], < 10 µM.
Taken in the same sequence, the figures for `C[C@@]1(O)[C@H](O)[C@@H](CO)O[C@H]1n1cnc2c(NNC=O)ncnc21` [Compound S1-14, 6-[(N^2-formyl)hydrazino]-9H-(2′-β-C-methyl-β-D-ribofuranosyl)purine] were > 100 µM and 10 to 100 µM.
In the same order, the values of `CN(N)c1ncnc2c1ncn2[C@@H]1O[C@H](CO)[C@@H](O)[C@@]1(C)O` [Compound S1-15, 6-(N^1-methylhydrazino)-9H-(2′-β-C-methyl-β-D-ribofuranosyl)purine] are > 100 µM and < 10 µM.
In the same order, the values of `COC(=O)NNc1ncnc2c1ncn2[C@@H]1O[C@H](CO)[C@@H](O)[C@@]1(C)O` [Compound S1-16] are 25 to 100 µM and < 10 µM.
Consider `CC(=O)NNc1ncnc2c1ncn2[C@@H]1O[C@H](CO)[C@@H](O)[C@@]1(C)O` [Compound S1-17, 6-[N^2-(Acetyl)hydrazino]-9H-(2′-β-C-methyl-β-D-ribofuranosyl)purine], for which the EC50 was < 25 µM in experiment [1] and < 10 µM in experiment [2].
In the same order, the values of `C[C@@]1(O)[C@H](O)[C@@H](CO)O[C@H]1n1cnc2c(NNS(C)(=O)=O)ncnc21` [Compound S1-18] are 25 to 100 µM and < 10 µM.
`C[C@@]1(O)[C@H](O)[C@@H](CO)O[C@H]1n1cnc2c(NO)ncnc21` [Compound S1-19, 6-Hydroxyamino-9H-(2′-β-C-methyl-β-D-ribofuranosyl)purine]: the values for the EC50 in experiment [1] and in experiment [2] were 25 to 100 µM and < 10 µM, respectively.
Taken in the same sequence, the figures for `CON(C)c1ncnc2c1ncn2[C@@H]1O[C@H](CO)[C@@H](O)[C@@]1(C)O` [Compound S1-20, 6-(N,O-Dimethylhydroxylamine)-9H-(2′-β-C-methyl-β-D-ribofuranosyl)purine] were > 100 µM and 10 to 100 µM.
As for `CC(C)(C)OC(=O)NOc1ncnc2c1ncn2[C@@H]1O[C@H](CO)[C@@H](O)[C@@]1(C)O` [Compound S1-21, 6-(N-(t-Butyloxycarbonyl)aminoxy]-9H-(2′-β-C-methyl-β-D-ribofuranosyl)purine], the values for the 50% effective concentration (EC50) in experiment [1] and in experiment [2] were > 100 µM and < 10 µM, respectively.
Taken in the same sequence, the figures for `C[C@@]1(O)[C@H](O)[C@@H](CO)O[C@H]1n1cnc2c(ONC(=O)OCc3ccccc3)ncnc21` [Compound S1-22, 6-[(N-Benzyloxycarbonyl)aminoxy]-9H-(2′-β-C-methyl-β-D-ribofuranosyl)purine] were > 100 µM and < 10 µM.
In the same order, the values of `C[C@@]1(O)[C@H](O)[C@@H](CO)O[C@H]1n1cnc2c(NCCN)ncnc21` [Compound S2-1, N^6-(2-Aminoethyl)-9H-(2′-β-C-methyl-β-D-ribofuranosyl)adenine] are 25 to 100 µM and < 10 µM.
As to `C[C@@]1(O)[C@H](O)[C@@H](CO)O[C@H]1n1cnc2c(NCCNc3ncnc4c3ncn4[C@@H]3O[C@H](CO)[C@@H](O)[C@@]3(C)O)ncnc21` [Compound S2-2, N,N′-Bis[N^6-9H-(2′-β-C-methyl-β-D-ribofuranosyl)adenin-6-yl]ethylenediamine], the EC50 was > 100 µM in experiment [1] (Bovine viral diarrhea virus isolates and strains); 10 to 100 µM in experiment [2] (Hepatitis C virus, 72 h).
As for “N^6-(2-Phenylpropyl)-9H-(2′-β-C-methyl-β-D-ribofuranosyl)adenine [Compound S1-5]”, the EC50 in experiment [1] and in experiment [2] was > 100 µM in each case.
